EC50 data for 24 molecules are collected here from US9758527B2, “Cyclohexene derivative, preparation method therefor, and pharmaceutical composition for preventing or treating metabolic diseases, containing same as active ingredient” (HYUNDAI PHARM CO., LTD., priority 2014, dated 2017).

Read-outs that look alike come from different tables or passages of the source. A value given as a limit tells only on which side of the number the result lay.

The target of this test is T1, G protein-coupled receptor 119 (GPR-119) (Mesocricetus auratus, UniProt A0A1U8CD06).
T1 construct: hamster-derived β-cells containing G protein-coupled receptor 119 (GPR-119), HIT-T15 cells; host or cells: HIT-T15 (hamster pancreatic β-cells)
T1 sequence (A0A1U8CD06 1-334): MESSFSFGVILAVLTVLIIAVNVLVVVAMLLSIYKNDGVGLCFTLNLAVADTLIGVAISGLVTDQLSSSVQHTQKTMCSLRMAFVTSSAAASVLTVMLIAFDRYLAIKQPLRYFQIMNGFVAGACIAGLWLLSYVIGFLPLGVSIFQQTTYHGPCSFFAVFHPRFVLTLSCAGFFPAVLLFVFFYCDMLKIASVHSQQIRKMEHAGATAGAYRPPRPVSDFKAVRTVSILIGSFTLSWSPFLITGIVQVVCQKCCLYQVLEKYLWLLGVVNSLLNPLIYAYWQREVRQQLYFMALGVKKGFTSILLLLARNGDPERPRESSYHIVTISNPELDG
Briefly: Evaluation of cAMP activity in HIT-T15 cells (HTRF cAMP dynamic kit). The following applies: cAMP activation. It counts as cell-based, hamster. The method, then:
To check whether the cyclohexene derivatives according to the present invention activate cyclic adenosine monophosphate (cAMP), experiments were carried out, as follows.
The HIT-T15 cells were plated on a 96-well plate at 60,000 cells per well. On the next day of plating, the cells were treated with a varying concentration of each of the example compounds according to the present invention, and incubated at 37° C. for an hour. In this case, each of the treated compounds was used at six concentrations, ranging from […], to treat the cells.
The cyclic adenosine monophosphate (cAMP) activity was measured according to the manufacturer's instruction using a cAMP dynamic kit commercially available from Cis Bio Inc. (Bedford, Mass.). The cells were lysed, and a level of cAMP was determined by a competitive immunoassay using D2-labeled cAMP and a cryptate-labeled anti-cAMP antibody. Fluorescence was read in Flex Station (Molecular Devices). […] Unlabeled cAMP in the cell lysate competed with the D2-labeled cAMP against the cryptate-labeled antibody. Since a decrease in the measured intensity of the FRET signals represents a level of cAMP in the cells, the cAMP activities of the compounds are calculated as a change in FRET signals by adjusting an amount of dimethyl sulfoxide (DMSO).

Setting [1] is: 1 h at 37° C., six concentrations, read-out: EC50.

Take `CC(C)c1noc(N2CCC(COc3ccc(C4=CCC(C(=O)N5CC[C@@H](F)C5)CC4)cc3)CC2)n1` (stereo partly drawn) [Example 54, ((R)-3-fluoropyrrolidin-1-yl)(4-(4-((1-(3-isopropyl-1,2,4-oxadiazol-5-yl)piperidin-4-yl)methoxy)phenyl)cyclohex-3-enyl)methanone]: the EC50 by setting is: under setting [1], 42 nM; (read-out: EC50 value) at most 50 nM.

On to `CCc1cnc(N2CCC(COc3ccc(C4=CCC(C(=O)N5CCN(CC)CC5)CC4)cc3)CC2)nc1` (stereo not drawn) [Example 55, (4-ethylpiperazin-1-yl)(4-(4-((1-(5-ethylpyrimidin-2-yl)piperidin-4-yl)methoxy)phenyl)cyclohex-3-enyl)methanone], for which the EC50 under setting [1] was 100 nM.

Take `CC(C)c1noc(N2CCC(COc3ccc(C4=CCC(C(=O)N5CCCCC5)CC4)cc3)CC2)n1` (stereo not drawn) [Example 56, (4-(4-((1-(3-isopropyl-1,2,4-oxadiazol-5-yl)piperidin-4-yl)methoxy)phenyl)cyclohex-3-enyl)(piperidin-1-yl)methanone]: the concentration for a half-maximal effect (EC50) runs as follows: under setting [1], 30 nM; (read-out: EC50 value) at most 50 nM.

With `CC(C)(C)OC(=O)N1CCC(COc2ccc(C3=CCC(C(=O)N4CC[C@H](F)C4)CC3)cc2F)CC1` (stereo partly drawn) [Example 57, tert-butyl 4-((2-fluoro-4-(4-((S)-3-fluoropyrrolidine-1-carbonyl)cyclohex-1-enyl)phenoxy)methyl)piperidine-1-carboxylate], the EC50 was 8 nM under setting [1] and at most 50 nM (read-out: EC50 value).

With `CC(C)(C)OC(=O)N1CCC(COc2ccc(C3=CCC(C(=O)N4CC[C@@H](F)C4)CC3)cc2F)CC1` (stereo partly drawn) [Example 58, tert-butyl 4-((2-fluoro-4-(4-((R)-3-fluoropyrrolidine-1-carbonyl)cyclohex-1-enyl)phenoxy)methyl)piperidine-1-carboxylate], the concentration for a half-maximal effect (EC50) (read-out: EC50 value) was at most 50 nM.

Regarding `C[C@@H](CO)NC(=O)C1CC=C(c2ccc(OCC3CCN(C(=O)OC(C)(C)C)CC3)c(F)c2)CC1` (stereo partly drawn) [Example 59, tert-butyl 4-((2-fluoro-4-(4-((S)-1-hydroxypropan-2-ylcarbamoyl)cyclohex-1-enyl)phenoxy)methyl)piperidine-1-carboxylate], the concentration giving a half-maximal response (EC50) under setting [1] is 78 nM.

Take `C[C@H](CO)NC(=O)C1CC=C(c2ccc(OCC3CCN(C(=O)OC(C)(C)C)CC3)c(F)c2)CC1` (stereo partly drawn) [Example 60, tert-butyl 4-((2-fluoro-4-(4-((R)-1-hydroxypropan-2-ylcarbamoyl)cyclohex-1-enyl)phenoxy)methyl)piperidine-1-carboxylate]: the EC50 is 40 nM under setting [1] and at most 50 nM (read-out: EC50 value).

Turning to `C[C@H](O)CNC(=O)C1CC=C(c2ccc(OCC3CCN(C(=O)OC(C)(C)C)CC3)c(F)c2)CC1` (stereo partly drawn) [Example 61, tert-butyl 4-((2-fluoro-4-(4-((S)-2-hydroxypropylcarbamoyl)cyclohex-1-enyl)phenoxy)methyl)piperidine-1-carboxylate], the EC50 under setting [1] turned out to be 45 nM and the concentration for a half-maximal effect (EC50) (read-out: EC50 value) was at most 50 nM.

Consider `C[C@@H](O)CNC(=O)C1CC=C(c2ccc(OCC3CCN(C(=O)OC(C)(C)C)CC3)c(F)c2)CC1` (stereo partly drawn) [Example 62, tert-butyl 4-((2-fluoro-4-(4-((R)-2-hydroxypropylcarbamoyl)cyclohex-1-enyl)phenoxy)methyl)piperidine-1-carboxylate], for which the concentration for a half-maximal effect (EC50) under setting [1] stood at 70 nM.

For the molecule `CC(C)(C)OC(=O)N1CCC(COc2ccc(C3=CCC(C(=O)NC[C@H](O)CO)CC3)cc2F)CC1` (stereo partly drawn) [Example 63, tert-butyl 4-((4-(4-((S)-2,3-dihydroxypropylcarbamoyl)cyclohex-1-enyl)-2-fluorophenoxy)methyl)piperidine-1-carboxylate], the EC50 under setting [1] worked out at 110 nM.

For the molecule `CC(C)(C)OC(=O)N1CCC(COc2ccc(C3=CCC(C(=O)NC[C@@H](O)CO)CC3)cc2F)CC1` (stereo partly drawn) [Example 64, tert-butyl 4-((4-(4-((R)-2,3-dihydroxypropylcarbamoyl)cyclohex-1-enyl)-2-fluorophenoxy)methyl)piperidine-1-carboxylate], the EC50 by setting is: under setting [1], 50 nM; (read-out: EC50 value) at most 50 nM.

In the case of `CC(C)c1noc(N2CCC(COc3ccc(C4=CCC(C(=O)N5CCC5)CC4)cc3)CC2)n1` (stereo not drawn) [Example 65, azetidin-1-yl(4-(4-((1-(3-isopropyl-1,2,4-oxadiazol-5-yl)piperidin-4-yl)methoxy)phenyl)cyclohex-3-enyl)methanone], the half-maximal effective concentration (EC50) by setting is: under setting [1], 41 nM; (read-out: EC50 value) at most 50 nM.

As to `CC(C)c1noc(N2CCC(COc3ccc(C4=CCC(C(=O)N5CCOCC5)CC4)cc3)CC2)n1` (stereo not drawn) [Example 66, (4-(4-((1-(3-isopropyl-1,2,4-oxadiazol-5-yl)piperidin-4-yl)methoxy)phenyl)cyclohex-3-enyl)(morpholino)methanone], the EC50 by setting is: under setting [1], 18 nM; (read-out: EC50 value) at most 50 nM.

Regarding `CC(C)(C)OC(=O)N1CCC(COc2ccc(C3=CCC(C(=O)NC(CO)CO)CC3)cc2F)CC1` (stereo not drawn) [Example 67, tert-butyl 4-((4-(4-(1,3-dihydroxypropan-2-ylcarbamoyl)cyclohex-1-enyl)-2-fluorophenoxy)methyl)piperidine-1-carboxylate], under setting [1], the EC50 is 60 nM.

Take `CC(C)(C)OC(=O)N1CCC(COc2ccc(C3=CCC(C(=O)NC(CO)CO)CC3)cn2)CC1` (stereo not drawn) [Example 68, tert-butyl 4-((5-(4-(1,3-dihydroxypropan-2-ylcarbamoyl)cyclohex-1-enyl)pyridin-2-yloxy)methyl)piperidine-1-carboxylate]: the concentration giving a half-maximal response (EC50) under setting [1] is 300 nM.

Regarding `CC(C)(C)OC(=O)N1CCC(COc2ccc(C3=CCC(C(=O)N4CCOCC4)CC3)cn2)CC1` (stereo not drawn) [Example 70, tert-butyl 4-((5-(4-(morpholine-4-carbonyl)cyclohex-1-enyl)pyridin-2-yloxy)methyl)piperidine-1-carboxylate], the half-maximal effective concentration (EC50) reads like this: under setting [1], 45 nM; (read-out: EC50 value) at most 50 nM.

Regarding `CC(C)(C)OC(=O)N1CCC(COc2ccc(C3=CCC(C(=O)N4CCSCC4)CC3)cc2F)CC1` (stereo not drawn) [Example 71, tert-butyl 4-((2-fluoro-4-(4-(thiomorpholine-4-carbonyl)cyclohex-1-enyl)phenoxy)methyl)piperidine-1-carboxylate], the 50% effective concentration (EC50) by setting is: under setting [1], 5.4 nM; (read-out: EC50 value) at most 50 nM.

For `CC(C)(C)OC(=O)N1CCC(COc2ccc(C3=CCC(C(=O)N4CCSCC4)CC3)cn2)CC1` (stereo not drawn) [Example 72, tert-butyl 4-((5-(4-(thiomorpholine-4-carbonyl)cyclohex-1-enyl)pyridin-2-yloxy)methyl)piperidine-1-carboxylate], the EC50 was 25 nM under setting [1] and at most 50 nM (read-out: EC50 value).

`CC(C)(C)OC(=O)N1CCC(COc2ccc(C3=CCC(C(=O)N4CCS(=O)(=O)CC4)CC3)cc2F)CC1` (stereo not drawn) [Example 73, tert-butyl 4-((2-fluoro-4-(4-(thiomorpholine-1,1-dioxide-4-carbonyl)cyclohex-1-enyl)phenoxy)methyl)piperidine-1-carboxylate]: the EC50 is 11 nM under setting [1] and at most 50 nM (read-out: EC50 value).

As to `CC(C)c1noc(N2CCC(COc3ccc(C4=CCC(C(=O)N5CCSCC5)CC4)cc3)CC2)n1` (stereo not drawn) [Example 74, (4-(4-((1-(3-isopropyl-1,2,4-oxadiazol-5-yl)piperidin-4-yl)methoxy)phenyl)cyclohex-3-enyl)(thiomorpholino)methanone], the half-maximal effective concentration (EC50) was 6.2 nM under setting [1] and at most 50 nM (read-out: EC50 value).

Regarding `CC(C)c1noc(N2CCC(COc3ccc(C4=CCC(C(=O)NCCF)CC4)cc3)CC2)n1` (stereo not drawn) [Example 75, N-(2-fluoroethyl)-4-(4-((1-(3-isopropyl-1,2,4-oxadiazol-5-yl)piperidin-4-yl)methoxy)phenyl)cyclohex-3-enecarboxamide], the 50% effective concentration (EC50) under setting [1] turned out to be 210 nM.

On to `CC(C)c1noc(N2CCC(COc3ccc(C4=CCC(C(=O)N(C)CCCNC(=O)OC(C)(C)C)CC4)cc3)CC2)n1` (stereo not drawn) [Example 76, tert-butyl 3-(4-(4-((1-(3-isopropyl-1,2,4-oxadiazol-5-yl)piperidin-4-yl)methoxy)phenyl)-N-methylcyclohex-3-enecarboxamido)propylcarbamate], for which the EC50 was 12 nM under setting [1] and at most 50 nM (read-out: EC50 value).

For `CC(C)c1noc(N2CCC(COc3ccc(C4=CCC(C(=O)N(C)CCCN)CC4)cc3)CC2)n1` (stereo not drawn) [Example 77, N-(3-aminopropyl)-4-(4-((1-(3-isopropyl-1,2,4-oxadiazol-5-yl)piperidin-4-yl)methoxy)phenyl)-N-methylcyclohex-3-enecarboxamide], the EC50 is 12 nM under setting [1] and at most 50 nM (read-out: EC50 value).

In the case of `CC(C)c1noc(N2CCC(COc3ccc(C4=CCC(C(=O)NCC(F)(F)F)CC4)cc3)CC2)n1` (stereo not drawn) [Example 78, 4-(4-((1-(3-isopropyl-1,2,4-oxadiazol-5-yl)piperidin-4-yl)methoxy)phenyl)-N-(2,2,2-trifluoroethyl)cyclohex-3-enecarboxamide], the concentration giving a half-maximal response (EC50) under setting [1] was found to be 100 nM.
